Source: ChEMBL document CHEMBL1926576, “Fragment based lead discovery of small molecule inhibitors for the EPHA4 receptor tyrosine kinase” (Eur J Med Chem, 2012)

Columns and labels:
[1] = target: Serine/threonine-protein kinase Nek2 (Homo sapiens) (UniProt P51955); test: Inhibition of NEK2alpha assessed as residual activity at 10 uM using [33P-ATP] by radiometric filter binding assay
[2] = target: Ribosomal protein S6 kinase alpha-1 (Homo sapiens) (UniProt Q15418); test: Inhibition of RSK1 assessed as residual activity at 10 uM using [33P-ATP] by radiometric filter binding assay
[3] = target: Mitogen-activated protein kinase 9 (Homo sapiens) (UniProt P45984); test: Inhibition of JNK2 assessed as residual activity at 10 uM using [33P-ATP] by radiometric filter binding assay
[4] = target: Ribosomal protein S6 kinase alpha-3 (Homo sapiens) (UniProt P51812); test: Inhibition of RSK2 assessed as residual activity at 10 uM using [33P-ATP] by radiometric filter binding assay
[5] = target: Mitogen-activated protein kinase 14 (Homo sapiens) (UniProt Q16539); test: Inhibition of p38alpha MAPK assessed as residual activity at 10 uM using [33P-ATP] by radiometric filter binding assay
[6] = target: Dual specificity testis-specific protein kinase 1 (Homo sapiens) (UniProt Q15569); test: Inhibition of TESK1 assessed as residual activity at 10 uM using [33P-ATP] by radiometric filter binding assay
[7] = Inhibition of AMPK assessed as residual activity at 10 uM using [33P-ATP] by radiometric filter binding assay
[8] = target: RAC-beta serine/threonine-protein kinase (Homo sapiens) (UniProt P31751); test: Inhibition of PKBbeta assessed as residual activity at 10 uM using [33P-ATP] by radiometric filter binding assay
Ephrin type-A receptor 4 = Ephrin type-A receptor 4 (Homo sapiens, UniProt P54764); test: Inhibition of his-tagged EPHA4-mediated poly(Glu,Tyr) phosphorylation after 75 mins using E4:Y1 as substrate by fluorescence assay
[9] = target: Serine/threonine-protein kinase pim-3 (Homo sapiens) (UniProt Q86V86); test: Inhibition of PIM3 assessed as residual activity at 10 uM using [33P-ATP] by radiometric filter binding assay
[10] = target: Fibroblast growth factor receptor 1 (Homo sapiens) (UniProt P11362); test: Inhibition of FGF-R1 assessed as residual activity at 10 uM using [33P-ATP] by radiometric filter binding assay
[11] = target: Serine/threonine-protein kinase pim-1 (Homo sapiens) (UniProt P11309); test: Inhibition of PIM1 assessed as residual activity at 10 uM using [33P-ATP] by radiometric filter binding assay
[12] = target: Dual specificity tyrosine-phosphorylation-regulated kinase 2 (Homo sapiens) (UniProt Q92630); test: Inhibition of DYRK2 assessed as residual activity at 10 uM using [33P-ATP] by radiometric filter binding assay
[13] = target: Homeodomain-interacting protein kinase 1 (Homo sapiens) (UniProt Q86Z02); test: Inhibition of HIPK1 assessed as residual activity at 10 uM using [33P-ATP] by radiometric filter binding assay
[14] = target: Serine/threonine-protein kinase Nek6 (Homo sapiens) (UniProt Q9HC98); test: Inhibition of NEK6 assessed as residual activity at 10 uM using [33P-ATP] by radiometric filter binding assay
[15] = target: Mitogen-activated protein kinase 3 (Homo sapiens) (UniProt P27361); test: Inhibition of ERK1 assessed as residual activity at 10 uM using [33P-ATP] by radiometric filter binding assay
[16] = target: MAP kinase-interacting serine/threonine-protein kinase 2 (Homo sapiens) (UniProt Q9HBH9); test: Inhibition of MNK2 assessed as residual activity at 10 uM using [33P-ATP] by radiometric filter binding assay
[17] = target: Protein kinase C alpha type (Homo sapiens) (UniProt P17252); test: Inhibition of PKCalpha assessed as residual activity at 10 uM using [33P-ATP] by radiometric filter binding assay
[18] = target: Serine/threonine-protein kinase BRSK1 (Homo sapiens) (UniProt Q8TDC3); test: Inhibition of BRSK1 assessed as residual activity at 10 uM using [33P-ATP] by radiometric filter binding assay
[19] = Inhibition of PHK assessed as residual activity at 10 uM using [33P-ATP] by radiometric filter binding assay
[20] = target: High affinity nerve growth factor receptor (Homo sapiens) (UniProt P04629); test: Inhibition of TrkA assessed as residual activity at 10 uM using [33P-ATP] by radiometric filter binding assay
[21] = target: Serine/threonine-protein kinase tousled-like 1 (Homo sapiens) (UniProt Q9UKI8); test: Inhibition of TLK1 assessed as residual activity at 10 uM using [33P-ATP] by radiometric filter binding assay
[22] = target: Mitogen-activated protein kinase 15 (Homo sapiens) (UniProt Q8TD08); test: Inhibition of ERK8 assessed as residual activity at 10 uM using [33P-ATP] by radiometric filter binding assay
[23] = target: Mitogen-activated protein kinase 1 (Homo sapiens) (UniProt P28482); test: Inhibition of ERK2 assessed as residual activity at 10 uM using [33P-ATP] by radiometric filter binding assay
[24] = target: Serine/threonine-protein kinase OSR1 (Homo sapiens) (UniProt O95747); test: Inhibition of OSR1 assessed as residual activity at 10 uM using [33P-ATP] by radiometric filter binding assay
[25] = target: MAP/microtubule affinity-regulating kinase 4 (Homo sapiens) (UniProt Q96L34); test: Inhibition of MARK4 assessed as residual activity at 10 uM using [33P-ATP] by radiometric filter binding assay
[26] = target: Myosin light chain kinase, smooth muscle (Homo sapiens) (UniProt Q15746); test: Inhibition of SmMLCK assessed as residual activity at 10 uM using [33P-ATP] by radiometric filter binding assay
[27] = target: Calcium/calmodulin-dependent protein kinase type 1 (Homo sapiens) (UniProt Q14012); test: Inhibition of CAMK1 assessed as residual activity at 10 uM using [33P-ATP] by radiometric filter binding assay
[28] = target: Cyclin-dependent kinase 2/cyclin A (Homo sapiens) (UniProt P24941+P20248+P78396); test: Inhibition of CDK2/Cyclin A assessed as residual activity at 10 uM using [33P-ATP] by radiometric filter binding assay; assay type: protein-complex assay
[29] = Inhibition of PKA assessed as residual activity at 10 uM using [33P-ATP] by radiometric filter binding assay
[30] = target: Dual specificity mitogen-activated protein kinase kinase 1 (Homo sapiens) (UniProt Q02750); test: Inhibition of MKK1 assessed as residual activity at 10 uM using [33P-ATP] by radiometric filter binding assay
[31] = target: Ephrin type-B receptor 1 (Homo sapiens) (UniProt P54762); test: Inhibition of EPHB1 assessed as residual activity at 10 uM using [33P-ATP] by radiometric filter binding assay
[32] = target: Tyrosine-protein kinase SYK (Homo sapiens) (UniProt P43405); test: Inhibition of SYK assessed as residual activity at 10 uM using [33P-ATP] by radiometric filter binding assay

Sequence of Serine/threonine-protein kinase pim-1 (Homo sapiens) (P11309 whole entry, looked up): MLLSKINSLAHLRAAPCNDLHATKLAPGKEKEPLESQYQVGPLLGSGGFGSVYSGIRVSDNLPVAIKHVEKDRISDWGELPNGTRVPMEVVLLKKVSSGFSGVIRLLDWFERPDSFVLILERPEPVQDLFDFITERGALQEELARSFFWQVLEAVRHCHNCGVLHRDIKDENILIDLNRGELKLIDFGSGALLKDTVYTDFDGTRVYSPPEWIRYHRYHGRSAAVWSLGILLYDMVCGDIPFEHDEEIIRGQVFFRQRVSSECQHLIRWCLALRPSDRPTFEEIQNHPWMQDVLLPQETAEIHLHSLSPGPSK
Sequence of RAC-beta serine/threonine-protein kinase (Homo sapiens) (P31751 whole entry): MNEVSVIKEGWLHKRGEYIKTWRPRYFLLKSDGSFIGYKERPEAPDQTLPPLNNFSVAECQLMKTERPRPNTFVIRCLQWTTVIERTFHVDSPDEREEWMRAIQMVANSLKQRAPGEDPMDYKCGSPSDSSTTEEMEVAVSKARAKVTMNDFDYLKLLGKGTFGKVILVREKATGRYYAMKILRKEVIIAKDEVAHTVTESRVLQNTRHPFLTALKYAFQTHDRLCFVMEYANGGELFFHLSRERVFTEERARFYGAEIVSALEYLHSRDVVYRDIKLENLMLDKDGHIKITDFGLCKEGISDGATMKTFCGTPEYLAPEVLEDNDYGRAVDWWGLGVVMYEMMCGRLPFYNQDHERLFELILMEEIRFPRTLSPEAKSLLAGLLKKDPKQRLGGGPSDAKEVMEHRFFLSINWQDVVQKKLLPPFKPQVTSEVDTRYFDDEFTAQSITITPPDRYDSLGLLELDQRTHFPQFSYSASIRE
Sequence of Ephrin type-A receptor 4 (P54764 whole entry): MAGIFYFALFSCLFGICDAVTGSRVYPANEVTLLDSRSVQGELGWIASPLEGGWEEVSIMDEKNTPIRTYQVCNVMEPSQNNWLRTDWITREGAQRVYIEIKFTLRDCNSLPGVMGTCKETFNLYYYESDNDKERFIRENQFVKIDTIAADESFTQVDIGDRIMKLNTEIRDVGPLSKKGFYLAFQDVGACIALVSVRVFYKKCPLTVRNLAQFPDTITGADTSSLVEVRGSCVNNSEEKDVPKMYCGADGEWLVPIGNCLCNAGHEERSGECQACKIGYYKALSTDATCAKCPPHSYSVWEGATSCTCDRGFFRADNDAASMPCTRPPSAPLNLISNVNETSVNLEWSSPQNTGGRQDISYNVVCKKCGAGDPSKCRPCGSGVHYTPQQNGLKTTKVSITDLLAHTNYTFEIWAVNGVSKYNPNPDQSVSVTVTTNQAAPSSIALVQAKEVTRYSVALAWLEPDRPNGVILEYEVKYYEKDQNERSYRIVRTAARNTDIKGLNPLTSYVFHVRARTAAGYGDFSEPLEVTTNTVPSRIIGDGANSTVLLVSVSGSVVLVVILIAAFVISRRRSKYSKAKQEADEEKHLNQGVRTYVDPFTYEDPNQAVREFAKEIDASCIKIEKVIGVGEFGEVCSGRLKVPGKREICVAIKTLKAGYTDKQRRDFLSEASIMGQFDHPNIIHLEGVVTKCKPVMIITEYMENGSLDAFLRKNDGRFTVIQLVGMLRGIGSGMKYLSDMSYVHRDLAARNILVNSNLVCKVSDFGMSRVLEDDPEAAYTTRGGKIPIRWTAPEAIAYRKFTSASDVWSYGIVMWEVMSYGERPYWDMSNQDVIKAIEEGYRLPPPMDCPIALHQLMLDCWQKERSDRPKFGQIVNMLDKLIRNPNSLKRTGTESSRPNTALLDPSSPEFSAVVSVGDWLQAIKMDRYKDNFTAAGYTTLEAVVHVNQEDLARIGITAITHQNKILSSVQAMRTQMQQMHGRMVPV
Sequence of Dual specificity tyrosine-phosphorylation-regulated kinase 2 (Homo sapiens) (Q92630 whole entry): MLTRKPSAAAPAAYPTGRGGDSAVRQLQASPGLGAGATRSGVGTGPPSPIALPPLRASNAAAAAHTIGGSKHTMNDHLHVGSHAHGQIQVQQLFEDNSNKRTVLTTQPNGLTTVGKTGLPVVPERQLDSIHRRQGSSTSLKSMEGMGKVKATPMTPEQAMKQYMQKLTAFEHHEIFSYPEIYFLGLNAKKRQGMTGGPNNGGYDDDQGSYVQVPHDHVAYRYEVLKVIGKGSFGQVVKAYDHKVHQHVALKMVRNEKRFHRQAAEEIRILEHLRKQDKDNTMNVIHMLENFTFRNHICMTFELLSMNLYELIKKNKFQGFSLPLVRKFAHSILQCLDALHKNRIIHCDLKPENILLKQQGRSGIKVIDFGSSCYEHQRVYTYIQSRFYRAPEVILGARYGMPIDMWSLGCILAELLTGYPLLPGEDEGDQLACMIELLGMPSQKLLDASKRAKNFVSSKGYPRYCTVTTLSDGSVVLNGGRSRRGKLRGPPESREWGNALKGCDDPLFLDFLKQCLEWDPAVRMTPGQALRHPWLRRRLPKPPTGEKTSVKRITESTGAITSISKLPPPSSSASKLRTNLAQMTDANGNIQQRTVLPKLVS
Sequence of Dual specificity testis-specific protein kinase 1 (Homo sapiens) (Q15569 whole entry, looked up): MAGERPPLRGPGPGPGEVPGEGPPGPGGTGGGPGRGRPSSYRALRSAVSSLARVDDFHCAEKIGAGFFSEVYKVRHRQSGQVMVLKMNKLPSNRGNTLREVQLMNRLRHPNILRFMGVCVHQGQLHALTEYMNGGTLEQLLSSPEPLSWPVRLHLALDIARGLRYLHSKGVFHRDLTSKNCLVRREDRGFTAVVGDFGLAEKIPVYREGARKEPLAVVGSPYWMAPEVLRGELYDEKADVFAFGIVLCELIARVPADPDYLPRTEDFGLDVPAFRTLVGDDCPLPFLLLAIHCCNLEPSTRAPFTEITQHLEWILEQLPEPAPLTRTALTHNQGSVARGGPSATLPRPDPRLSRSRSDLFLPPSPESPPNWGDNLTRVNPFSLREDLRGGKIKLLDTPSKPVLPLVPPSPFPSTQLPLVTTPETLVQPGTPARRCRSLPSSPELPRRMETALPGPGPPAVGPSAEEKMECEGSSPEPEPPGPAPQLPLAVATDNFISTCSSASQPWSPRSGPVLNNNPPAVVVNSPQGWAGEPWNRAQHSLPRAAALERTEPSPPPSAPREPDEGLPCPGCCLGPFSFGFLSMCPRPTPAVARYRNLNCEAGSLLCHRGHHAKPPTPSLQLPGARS
Sequence of MAP kinase-interacting serine/threonine-protein kinase 2 (Homo sapiens) (Q9HBH9 whole entry, looked up): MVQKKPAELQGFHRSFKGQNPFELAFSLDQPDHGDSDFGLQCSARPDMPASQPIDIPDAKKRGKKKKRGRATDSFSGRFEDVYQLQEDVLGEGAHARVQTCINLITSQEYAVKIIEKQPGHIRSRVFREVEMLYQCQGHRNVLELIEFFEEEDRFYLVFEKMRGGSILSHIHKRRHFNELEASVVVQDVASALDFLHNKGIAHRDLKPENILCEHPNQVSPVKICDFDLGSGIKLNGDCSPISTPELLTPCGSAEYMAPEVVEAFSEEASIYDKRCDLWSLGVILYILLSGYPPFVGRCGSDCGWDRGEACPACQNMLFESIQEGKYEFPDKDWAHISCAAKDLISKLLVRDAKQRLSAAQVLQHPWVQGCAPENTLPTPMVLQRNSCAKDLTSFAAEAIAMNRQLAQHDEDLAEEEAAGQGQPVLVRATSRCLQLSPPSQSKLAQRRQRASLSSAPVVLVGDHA
Sequence of Serine/threonine-protein kinase tousled-like 1 (Homo sapiens) (Q9UKI8 whole entry): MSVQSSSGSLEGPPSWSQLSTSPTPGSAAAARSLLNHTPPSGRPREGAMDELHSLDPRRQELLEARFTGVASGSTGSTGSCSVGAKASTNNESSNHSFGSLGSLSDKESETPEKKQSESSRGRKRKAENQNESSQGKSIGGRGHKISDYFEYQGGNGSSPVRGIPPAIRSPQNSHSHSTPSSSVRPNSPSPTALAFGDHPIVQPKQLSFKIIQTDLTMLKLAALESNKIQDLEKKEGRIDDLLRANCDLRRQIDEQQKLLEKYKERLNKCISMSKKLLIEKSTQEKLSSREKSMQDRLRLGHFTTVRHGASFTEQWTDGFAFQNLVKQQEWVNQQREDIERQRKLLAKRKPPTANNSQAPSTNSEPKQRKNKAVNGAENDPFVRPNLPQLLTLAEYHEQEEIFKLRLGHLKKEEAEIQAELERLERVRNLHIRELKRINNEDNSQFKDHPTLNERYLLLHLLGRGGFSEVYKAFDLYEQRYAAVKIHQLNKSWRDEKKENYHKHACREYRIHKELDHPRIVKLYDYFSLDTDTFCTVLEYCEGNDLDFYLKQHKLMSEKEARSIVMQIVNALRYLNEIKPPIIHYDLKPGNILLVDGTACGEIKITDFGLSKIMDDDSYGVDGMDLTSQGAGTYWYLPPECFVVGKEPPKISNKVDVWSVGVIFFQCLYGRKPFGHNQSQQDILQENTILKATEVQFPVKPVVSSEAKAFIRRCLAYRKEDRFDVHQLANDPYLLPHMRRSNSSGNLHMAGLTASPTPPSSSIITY

Cc1ccc(F)cc1-c1nc2[nH]nc(N)c2c2c1CCCC2
Activity [1]: 91%
Activity [2]: 93%
Activity [3]: 88%
Activity [4]: 82%
Activity [5]: 54%
Activity [6]: 23%
Activity [7]: 86%
Activity [8]: 77%
IC50 (Ephrin type-A receptor 4): 4.5 µM
Activity [9]: 82%
Activity [10]: 55%
Activity [11]: 76%
Activity [12]: 101%
Activity [13]: 124%
Activity [14]: 86%
Activity [15]: 97%
Activity [16]: 93%
Activity [17]: 112%
Activity [18]: 52%
Activity [19]: 86%
Activity [20]: 45%
Activity [21]: 99%
Activity [22]: 46%
Activity [23]: 98%
Activity [24]: 81%
Activity [25]: 74%
Activity [26]: 63%
Activity [27]: 75%
Activity [28]: 87%
Activity [29]: 93%
Activity [30]: 29%
Activity [31]: 4%
Activity [32]: 76%
